# Assay results reported in patent publication US20260001893A1, “SMALL MOLECULE MODULATORS OF STAT6” (Gilead Sciences, Inc., priority 2024, published 2026).
# Experiments:
# [1] = system: Eotaxin-3 (CCL26) release in human whole blood stimulated with IL-4; test: Human whole blood eotaxin-3 assay (IL-4 stimulated eotaxin-3 release); type: cell-based; settings: human whole blood stimulated with recombinant human IL-4, 48 h, geometric mean; for EC50 / Emax: Homo sapiens, 48 h; for EC50: inhibition of eotaxin-3 release, given for test compounds with >80% Emax
# In short: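 Lithium-heparin human whole blood was preincubated with compound (4-fold serial dilution, 0.5% DMSO final) for 2 h at 37° C, then stimulated with recombinant human IL-4 at […] final for 48 h. Eotaxin-3 (CCL26) in the supernatant was measured by MSD immunoassay.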
# [2] = molecular target: T1, Human STAT6 (truncated, aa122-658, with N-terminal His-tag) (Homo sapiens, UniProt P42226); test: Surface plasmon resonance (SPR) assay, binding to human STAT6; settings: Biacore 8K, 25° C, immobilized human STAT6 on CM5 chip, multi-cycle kinetics; geometric mean
# T1 construct: Human STAT6 (truncated, aa122-658, with N-terminal His-tag, expressed in insect cells); His-tag (N); made in house; host or cells: insect cells
# T1 sequence (P42226 122-658): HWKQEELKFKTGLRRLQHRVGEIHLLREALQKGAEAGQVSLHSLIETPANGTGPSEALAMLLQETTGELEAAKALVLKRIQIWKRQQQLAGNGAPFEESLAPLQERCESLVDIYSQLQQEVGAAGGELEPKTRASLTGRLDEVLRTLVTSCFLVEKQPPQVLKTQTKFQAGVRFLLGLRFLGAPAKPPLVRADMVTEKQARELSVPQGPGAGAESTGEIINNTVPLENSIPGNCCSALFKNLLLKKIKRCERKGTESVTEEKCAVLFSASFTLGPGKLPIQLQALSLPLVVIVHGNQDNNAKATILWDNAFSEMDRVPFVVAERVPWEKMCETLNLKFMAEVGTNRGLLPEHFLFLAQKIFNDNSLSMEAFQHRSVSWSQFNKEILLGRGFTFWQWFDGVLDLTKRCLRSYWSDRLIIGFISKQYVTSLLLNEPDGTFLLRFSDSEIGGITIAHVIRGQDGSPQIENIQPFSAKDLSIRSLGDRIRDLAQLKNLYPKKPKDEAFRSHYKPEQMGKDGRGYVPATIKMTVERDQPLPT
# In short: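 Truncated STAT6 (aa122-658, N-His, insect-cell expressed) was amine-coupled to a CM5 chip, and compounds were run as multi-cycle kinetics at 25 °C in PBS-P+ with 2% DMSO (60 s contact, up to 300 s dissociation). KD came from steady-state isotherms at a late report point, fitted with free and with fixed theoretical Rmax (1:1).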
# [3] = given for test compounds with <80% Emax
Structure (SMILES),EC50 [1],Kd [2],"Emax [1, 3]","Eotaxin-3 Emax (%) [1, 3]"
"CN(C)C(=O)c1ccc(C2CCN(Cc3cc4c(-n5cc(F)c(N)cc5=O)ccnc4n3C)CC2)cc1 [Example 1d19, 4-[1-[[4-(4-Amino-5-fluoro-2-oxo-1-pyridyl)-1-methyl-pyrrolo[2,3-b]pyridin-2-yl]methyl]-4-piperidyl]-N,N-dimethyl-benzamide]",0.257 µM,0.0329 µM,,
"CNc1ccn(-c2ccnc3c2cc(CN2CC[C@H](c4ccc(C(=O)N(C)C)cc4)[C@@H](F)C2)n3C)c(=O)c1 (single isomer, unassigned) [Example 1f3]",0.289 µM,0.0325 µM,,
"CNc1ccn(-c2ccnc3c2cc(CN2CC=C(c4ccc(C(=O)N(C)C)cc4)CC2)n3C)c(=O)c1 [Example 1m35, N,N-Dimethyl-4-(1-((1-methyl-4-(4-(methylamino)-2-oxopyridin-1 (2H)-yl)-1H-pyrrolo[2,3-b]pyridin-2-yl)methyl)-1,2,3,6-tetrahydropyridin-4-yl)benzamide]",,0.035 µM,40 to 50%,
"CNc1ccn(-c2ccnc3c2cc(CN2CCN(c4ccc(C(=O)N(C)C)cc4C)C[C@@H]2C)n3C)c(=O)c1 [Example 1m18, (S)—N,N,3-Trimethyl-4-(3-methyl-4-((1-methyl-4-(4-(methylamino)-2-oxopyridin-1 (2H)-yl)-1H-pyrrolo[2,3-b]pyridin-2-yl)methyl)piperazin-1-yl)benzamide]",0.0536 µM,0.0189 µM,,
"CN(C)C(=O)c1ccc(C2CCN(Cc3cc4c(-n5ccc(N)c(F)c5=O)ccnc4n3C)CC2)cc1 [Example 1d31, 4-[1-[[4-(4-Amino-3-fluoro-2-oxo-1-pyridyl)-1-methyl-pyrrolo[2,3-b]pyridin-2-yl]methyl]-4-piperidyl]-N,N-dimethyl-benzamide]",0.1 µM,0.0223 µM,,
"CN(C)C(=O)c1ccc(C2CCN(Cc3cc4c(-n5ccc6[nH]nc(C(F)(F)F)c6c5=O)ccnc4n3C)C(=O)C2)cc1 (single isomer, unassigned) [Example 1ab2]",,0.0376 µM,,50-60%
"CN(C)C(=O)c1ccc(C2CCN(Cc3cc4c(-n5ccc(N)nc5=O)ccnc4n3C)CC2)cc1 [Example 1ab6, 4-(1-((4-(4-Amino-2-oxopyrimidin-1 (2H)-yl)-1-methyl-1H-pyrrolo[2,3-b]pyridin-2-yl)methyl)piperidin-4-yl)-N,N-dimethylbenzamide]",,0.0373 µM,70 to 80%,
"CNc1ccn(-c2ccnc3c2cc(CN2CCC(c4c(C)cc(C(=O)N(C)C)cc4C)CC2)n3C)c(=O)c1 [Example 1d27, N,N,3,5-Tetramethyl-4-[1-[[1-methyl-4-[4-(methylamino)-2-oxo-1-pyridyl]pyrrolo[2,3-b]pyridin-2-yl]methyl]-4-piperidyl]benzamide]",0.0251 µM,0.016 µM,,
"CN(C)C(=O)c1ccc(C2CCN(Cc3cc4c(-n5ccc(N)c(C(F)(F)F)c5=O)ccnc4n3C)CC2)cc1 [Example 1d29, 4-[1-[[4-[4-Amino-2-oxo-3-(trifluoromethyl)-1-pyridyl]-1-methyl-pyrrolo[2,3-b]pyridin-2-yl]methyl]-4-piperidyl]-N,N-dimethyl-benzamide]",0.588 µM,0.0286 µM,,

# The next compounds have a lower Kd [2] than those just listed; values first:
EC50 [1],Kd [2],Structure (SMILES),"Emax [1, 3]","Eotaxin-3 Emax (%) [1, 3]"
0.0985 µM,0.015 µM,"CNc1ccn(-c2ccnc3c2cc(CN2CC[C@H](c4ccc(C(=O)N(C)C)cc4)C(F)(F)C2)n3C)c(=O)c1 (stereo in doubt) [Example 1f1, N,N-Dimethyl-4-[(4R)-3,3-difluoro-1-[[1-methyl-4-[4-(methylamino)-2-oxo-1-pyridyl]pyrrolo[2,3-b]pyridin-2-yl]methyl]-4-piperidyl]-benzamide]",,
0.17 µM,0.012 µM,"CNc1ccn(-c2ccnc3c2cc(CN2CC=C(c4ccc(C(=O)N(C)C)cc4Cl)CC2)n3C)c(=O)c1 [Example 1m64, 3-Chloro-N,N-dimethyl-4-[1-[[1-methyl-4-[4-(methylamino)-2-oxo-1-pyridyl]pyrrolo[2,3-b]pyridin-2-yl]methyl]-3,6-dihydro-2H-pyridin-4-yl]benzamide]",,
0.0156 µM,0.00866 µM,"CNc1ccn(-c2ccnc3c2cc(CN2CC=C(c4c(C)cc(C(=O)N(C)C)cc4C)CC2)n3C)c(=O)c1 [Example 1m12, N,N,3,5-Tetramethyl-4-(1-((1-methyl-4-(4-(methylamino)-2-oxopyridin-1 (2H)-yl)-1H-pyrrolo[2,3-b]pyridin-2-yl)methyl)-1,2,3,6-tetrahydropyridin-4-yl)benzamide]",,
0.0961 µM,0.0143 µM,"CNc1ccn(-c2ccnc3c2cc(CN2CC=C(c4ccc(C(=O)N(C)C)cc4C(F)(F)F)CC2)n3C)c(=O)c1 [Example 1m59, N,N-Dimethyl-4-(1-((1-methyl-4-(4-(methylamino)-2-oxopyridin-1 (2H)-yl)-1H-pyrrolo[2,3-b]pyridin-2-yl)methyl)-1,2,3,6-tetrahydropyridin-4-yl)-3-(trifluoromethyl)benzamide]",,
0.0447 µM,0.00979 µM,"CN(C)C(=O)c1ccc(C2CCN(Cc3cc4c(-n5ccc6[nH]ncc6c5=O)ccnc4n3C)CC2)cc1 [Example 1j27, N,N-Dimethyl-4-[1-[[1-methyl-4-(4-oxo-1H-pyrazolo[4,3-c]pyridin-5-yl)pyrrolo[2,3-b]pyridin-2-yl]methyl]-4-piperidyl]benzamide]",,
